Assay results reported in patent publication US6391878B2, “Guanidinyl heterocycle compounds useful as alpha-2 adrenoceptor agonists” (The Procter & Gamble Company, priority 1996, dated 2002).

How the values were obtained:
[1] = system: patient with nasal congestion; assay: Composition given to a patient with nasal congestion; type: in vivo, human
Description: One tablet is swallowed by a patient with nasal congestion.
One tablet is chewed and swallowed by a patient with nasal congestion.
One tablet is placed under the tongue of a patient with nasal congestion and allowed to dissolve.
One-tenth of a mL of the composition is sprayed from a pump actuator into each nostril of a patient with nasal congestion.
One-fifth of a mL of the composition is applied as drops from a dropper into each nostril of a patient with riasal congestion.
One 15 mL dose of the alcohol-free liquid medication is swallowed by a patient with nasal congestion.

patient with migraine = assay: Oral tablet given to a patient with migraine; type: in vivo, human; conditions: Example K oral tablet, 4 mg per tablet, one tablet swallowed
Description: One tablet is swallowed by a patient with migraine.

[2] = system: human subject suffering from septic or cardiogenic shock; assay: Intravenous solution given to a human subject suffering from septic or cardiogenic shock; type: in vivo; conditions: Example T parenteral solution 10 mg/ml carrier, approximately 2.0 ml intravenously
Description: The above ingredients are mixed, forming a solution. Approximately 2.0 ml of the solution is administered, intravenously, to a human subject suffering from septic or cardiogenic shock. The symptoms subside.

patient with asthma = assay: Inhalation aerosol given to a patient with asthma; type: in vivo, human; conditions: Example F inhalation aerosol 5.0 % w/v, two puffs from a metered-dose inhaler
Description: Two-puffs of the aerosol composition is inhaled from a metered-dose inhaler by a patient with asthma.

[3] = system: patient with nasal congestion and runny nose due to allergic rhinitis; assay: Oral liquid given to a patient with nasal congestion and runny nose due to allergic rhinitis; type: in vivo, human; conditions: Example H oral liquid, 15 mg per 15 mL dose, with chlorpheniramine maleate 4 mg, one dose swallowed
Description: One 15 mL dose of the liquid composition is swallowed by a patient with nasal congestion and runny nose due to allergic rhinitis.

patient with glaucoma = assay: Topical ophthalmic composition given to a patient with glaucoma, intraocular pressure; type: in vivo, human; conditions: Example G topical ophthalmic composition 0.10 % w/v, one-tenth of a mL into each eye
Description: One-tenth of a mL of the composition is administered directly into each eye of a patient with glaucoma.

Cc1c(NC(=N)N)ccc2nc[nH]c12 [Subject Compound 1, (4-Methylbenzimidazol-5-yl)guanidine]
nasal congestion ([1]; Example B chewable tablet, 15.0 mg per tablet, one tablet chewed and swallowed): substantially reduced
nasal congestion ([1]; Example E intranasal gel 0.10 % w/v, one-fifth of a mL as drops into each nostril): substantially reduced
pain and aura of migraine (patient with migraine): substantially diminished
symptoms of septic or cardiogenic shock [2]: subside

Cc1cc(NC(=N)N)c(C)c2[nH]cnc12 [Subject Compound 2, (4,7-Dimethylbenzimidazol-5-yl)guanidine]
asthmatic condition (patient with asthma): effectively relieved
nasal congestion ([1]; Example J alcohol-free oral liquid, 30 mg per 15 mL dose, one dose swallowed): substantially diminished

Cc1nc2c(C)c(NC(=N)N)ccc2[nH]1 [Subject Compound 3, (2,4-Dimethylbenzimidazol-5-yl)quanidine]
nasal congestion ([1]; Example D intranasal solution 0.20 % w/v, one-tenth of a mL sprayed into each nostril): substantially diminished

Cc1c(NC(=N)N)ccc2c1ncn2C [Subject Compound 4, (1,4-Dimethylbenzimidazol-5-yl)quanidine]
congestion and runny nose [3]: effectively reduced
nasal congestion ([1]; Example A oral tablet, 20.0 mg per tablet, one tablet swallowed): substantially diminished

N=C(N)Nc1ccc2nc[nH]c2c1Br [Subject Compound 5, (4-Bromobenzimidazol-5-yl)guanidine]
nasal congestion ([1]; Example C sublingual tablet, 2.00 mg per tablet, dissolved under the tongue): rapidly and substantially diminished
intraocular pressure (patient with glaucoma): substantially reduced
